Source: patent US8758816B2, “Compositions comprising azelastine and methods of use thereof” (priority 2004, dated 2014)
Counter-ions that a name gives are not always drawn.

Test system: patients with seasonal allergic rhinitis (SAR)
Test: MP 428 study: adverse events, Safety Population
Format: in vivo, human
Experimental: A two-week, randomized, double-blind study, which evaluated the effects of the co-administration of ASTELIN® (azelastine hydrochloride (HCl)) and FLONASE® (fluticasone propionate) compared to either product alone in patients with seasonal allergic rhinitis (SAR) was conducted during the 2006 Texas mountain cedar season. After a 5-day placebo lead-in period, 151 patients with moderate-to-severe allergic rhinitis symptoms were randomized to either: (1) (49 total patients) ASTELIN® (azelastine hydrochloride (HCl)) plus placebo saline nasal spray 2 sprays per nostril, 15 minutes apart, twice daily (AM & PM); (2) (50 total patients) FLONASE® (fluticasone propionate) plus placebo saline nasal spray, 2 sprays per nostril, 15 minutes apart, once daily (AM) and two sessions of placebo saline nasal spray, 2 sprays per nostril, 15 minutes apart (PM); or (3) (52 total patients) the co-administration of ASTELIN® (azelastine hydrochloride (HCl)) 2 sprays per nostril plus FLONASE® (fluticasone propionate) 2 sprays per nostril (AM), 15 minutes apart, and ASTELIN® (azelastine hydrochloride (HCl)) 2 sprays per nostril plus placebo saline nasal spray, 15 minutes apart, (PM) for a 2-week double-blind treatment period.
The most common adverse events (AEs) were bitter taste (8.2% in ASTELIN® (azelastine hydrochloride (HCl)) group, 2.0% in FLONASE® (fluticasone propionate) group, 13.5% in co-administration group) and headache (4.1% in ASTELIN® (azelastine hydrochloride (HCl)) group, 4.0% in FLONASE® (fluticasone propionate) group, 5.8% in co-administration group). No other AE was reported by more than one patient in any treatment group. There were no discontinuations due to AEs.

[1] = Possibly related to study drug, Safety Population
[2] = Probably related to study drug, Safety Population
[3] = Total (possibly or probably related), Safety Population

## CN1CCCC(n2nc(Cc3ccc(Cl)cc3)c3ccccc3c2=O)CC1 (racemic) [Azelastine, (±)-1-(2H)-phthalazinone, 4-[(4-chlorophenyl)methyl]-2-(hexahydro-1-methyl-1H-azepin-4-yl)-, mono-hydrochloride]
All Randomized Patients
  Primary Reason for Discontinuation From Study: Adverse Event: 0 (0.0) N (%)
Mild
  Number (%) Patients With Treatment-Related AEs by Maximum Severity: 1 (2.0) Number (%)
Moderate
  Number (%) Patients With Treatment-Related AEs by Maximum Severity: 0 (0.0) Number (%)
[1]
  Treatment-Related Adverse Events: Any Adverse Event: 1 (2.0) No. of Patients (%)
  Treatment-Related Adverse Events: DRY MOUTH: 0 (0.0) No. of Patients (%)
  Treatment-Related Adverse Events: DYSGEUSIA: 1 (2.0) No. of Patients (%)
  Treatment-Related Adverse Events: EPISTAXIS: 0 (0.0) No. of Patients (%)
  Treatment-Related Adverse Events: GASTROINTESTINAL DISORDERS, Any Preferred Term: 1 (2.0) No. of Patients (%)
  Treatment-Related Adverse Events: HEADACHE: 0 (0.0) No. of Patients (%)
  Treatment-Related Adverse Events: NASAL DISCOMFORT: 0 (0.0) No. of Patients (%)
  Treatment-Related Adverse Events: NERVOUS SYSTEM DISORDERS, Any Preferred Term: 0 (0.0) No. of Patients (%)
  Treatment-Related Adverse Events: RESPIRATORY, THORACIC AND MEDIASTINAL DISORDERS, Any Preferred Term: 0 (0.0) No. of Patients (%)
  Treatment-Related Adverse Events: STOMACH DISCOMFORT: 0 (0.0) No. of Patients (%)
[2]
  Treatment-Related Adverse Events: Any Adverse Event: 3 (6.1) No. of Patients (%)
  Treatment-Related Adverse Events: DRY MOUTH: 0 (0.0) No. of Patients (%)
  Treatment-Related Adverse Events: DYSGEUSIA: 3 (6.1) No. of Patients (%)
  Treatment-Related Adverse Events: EPISTAXIS: 0 (0.0) No. of Patients (%)
  Treatment-Related Adverse Events: GASTROINTESTINAL DISORDERS, Any Preferred Term: 3 (6.1) No. of Patients (%)
  Treatment-Related Adverse Events: HEADACHE: 0 (0.0) No. of Patients (%)
  Treatment-Related Adverse Events: NASAL DISCOMFORT: 0 (0.0) No. of Patients (%)
  Treatment-Related Adverse Events: NERVOUS SYSTEM DISORDERS, Any Preferred Term: 0 (0.0) No. of Patients (%)
  Treatment-Related Adverse Events: RESPIRATORY, THORACIC AND MEDIASTINAL DISORDERS, Any Preferred Term: 0 (0.0) No. of Patients (%)
  Treatment-Related Adverse Events: STOMACH DISCOMFORT: 0 (0.0) No. of Patients (%)
Safety Population
  Number (%) Patients With Any AEs: All Treatment-Related AEs: 4 (8.2) Number (%)
  Number (%) of Deaths: 0 (0.0) Number (%)
  Number (%) of Patients With Serious AEs: 0 (0.0) Number (%)
  Number of Adverse Events Reported: All Treatment-Emergent AEs: 9
  Number of Adverse Events Reported: All Treatment-Related AEs: 4
Severe
  Number (%) Patients With Treatment-Related AEs by Maximum Severity: 3 (6.1) Number (%)
Total
  Treatment-Emergent AE: Any Adverse Event: 8 (16.3) No. of Patients (%)
  Treatment-Emergent AE: DRY MOUTH: 0 (0.0) No. of Patients (%)
  Treatment-Emergent AE: DYSGEUSIA: 4 (8.2) No. of Patients (%)
  Treatment-Emergent AE: EAR AND LABYRINTH DISORDERS, Any Preferred Term: 1 (2.0) No. of Patients (%)
  Treatment-Emergent AE: EAR PAIN: 1 (2.0) No. of Patients (%)
  Treatment-Emergent AE: EPISTAXIS: 0 (0.0) No. of Patients (%)
  Treatment-Emergent AE: GASTROINTESTINAL DISORDERS, Any Preferred Term: 4 (8.2) No. of Patients (%)
  Treatment-Emergent AE: HEADACHE: 2 (4.1) No. of Patients (%)
  Treatment-Emergent AE: MUSCULOSKELETAL AND CONNECTIVE TISSUE DISORDERS, Any Preferred Term: 1 (2.0) No. of Patients (%)
  Treatment-Emergent AE: MYALGIA: 0 (0.0) No. of Patients (%)
  Treatment-Emergent AE: NASAL DISCOMFORT: 0 (0.0) No. of Patients (%)
  Treatment-Emergent AE: NECK PAIN: 1 (2.0) No. of Patients (%)
  Treatment-Emergent AE: NERVOUS SYSTEM DISORDERS, Any Preferred Term: 2 (4.1) No. of Patients (%)
  Treatment-Emergent AE: PHARYNGOLARYNGEAL PAIN: 1 (2.0) No. of Patients (%)
  Treatment-Emergent AE: RESPIRATORY, THORACIC AND MEDIASTINAL DISORDERS, Any Preferred Term: 1 (2.0) No. of Patients (%)
  Treatment-Emergent AE: STOMACH DISCOMFORT: 0 (0.0) No. of Patients (%)
[3]
  Treatment-Related Adverse Events: Any Adverse Event: 4 (8.2) No. of Patients (%)
  Treatment-Related Adverse Events: DRY MOUTH: 0 (0.0) No. of Patients (%)
  Treatment-Related Adverse Events: DYSGEUSIA: 4 (8.2) No. of Patients (%)
  Treatment-Related Adverse Events: EPISTAXIS: 0 (0.0) No. of Patients (%)
  Treatment-Related Adverse Events: GASTROINTESTINAL DISORDERS, Any Preferred Term: 4 (8.2) No. of Patients (%)
  Treatment-Related Adverse Events: HEADACHE: 0 (0.0) No. of Patients (%)
  Treatment-Related Adverse Events: NASAL DISCOMFORT: 0 (0.0) No. of Patients (%)
  Treatment-Related Adverse Events: NERVOUS SYSTEM DISORDERS, Any Preferred Term: 0 (0.0) No. of Patients (%)
  Treatment-Related Adverse Events: RESPIRATORY, THORACIC AND MEDIASTINAL DISORDERS, Any Preferred Term: 0 (0.0) No. of Patients (%)
  Treatment-Related Adverse Events: STOMACH DISCOMFORT: 0 (0.0) No. of Patients (%)
Max severity Mild
  Treatment-Emergent AE: DRY MOUTH: 0 (0.0) No. of Patients (%)
  Treatment-Emergent AE: DYSGEUSIA: 1 (2.0) No. of Patients (%)
  Treatment-Emergent AE: EAR AND LABYRINTH DISORDERS, Any Preferred Term: 0 (0.0) No. of Patients (%)
  Treatment-Emergent AE: EAR PAIN: 0 (0.0) No. of Patients (%)
  Treatment-Emergent AE: EPISTAXIS: 0 (0.0) No. of Patients (%)
  Treatment-Emergent AE: GASTROINTESTINAL DISORDERS, Any Preferred Term: 1 (2.0) No. of Patients (%)
  Treatment-Emergent AE: HEADACHE: 1 (2.0) No. of Patients (%)
  Treatment-Emergent AE: MUSCULOSKELETAL AND CONNECTIVE TISSUE DISORDERS, Any Preferred Term: 1 (2.0) No. of Patients (%)
  Treatment-Emergent AE: MYALGIA: 0 (0.0) No. of Patients (%)
